Laboratory results taken from patent US4204990A, “Somatostatin analogues” (American Home Products Corporation, priority 1978, dated 1980).
Counter-ions that a name gives are not always drawn. Positions of bridges follow the written chain, without caps; N, C: chain ends. Non-standard residues stand in square brackets, D forms with d. Residues, ends and D or L forms follow the SMILES beside them.

How the values were obtained:
Format in all cases: in vivo, rat
[1] = test system: growth hormone; assay: Duration of activity: plasma growth hormone by radioimmunoassay at hours after SC injection; conditions: for GH (duration of growth hormone suppression) / GH (duration of activity): 1,000 μg/kg
Experimental: The animals were kept in separate cages. Twenty minutes before the end of the test, 50 mg/kg Nembutal® was administered to all the rats (i.p.). […] Plasma was separated and growth hormone concentration was determined by radio immunoassay. Comparisons between the control and experimental growth hormone values were evaluated by the Student "t" test and statistical significance at the 0.05 level or lower was used as the index of activity. Based upon that test [Brazeau et al., Science, 170, 77 (1973)], the prolonged growth hormone suppression by the compounds of this invention was established. The data obtained for the product of Example 1, illustrative of the duration of activity of the other compounds of this invention, is as follows: […]

[2] = test system: insulin; assay: Arginine-stimulated insulin level in Nembutal-anaesthetised rats after subcutaneous test compound; conditions: p<0.01
Experimental: (§1) Albino male rats were administered Nembutal intraperitoneally at a dose of 50 milligrams per kilogram. Fifteen minutes later a subcutaneous injection of the test compound or physiological saline was administered. Ten minutes later 0.5 milliliters of arginine (300 milligrams per milliliter, pH 7.2) is injected into the heart. Five minutes after receipt of the arginine the rats are decapitated and blood is collected into trasylol-EDTA. An appropriate aliquot was assayed for growth hormone, insulin and glucagon.

[3] = test system: glucagon; assay: Arginine-stimulated glucagon level in Nembutal-anaesthetised rats after subcutaneous test compound
Experimental: as §1

[4] = test system: growth hormone; assay: Arginine-stimulated growth hormone level in Nembutal-anaesthetised rats after subcutaneous test compound; conditions: for GH: p<0.01
Experimental: as §1

[5] = dose 2,000 μg/kg, control 220 ± 17
[6] = dose 2,000 μg/kg, control 34 ± 4
[7] = dose 2,000 μg/kg, control 38 ± 6

Structure (SMILES): C[C@@H](O)[C@@H]1NC(=O)[C@H](Cc2ccccc2)NC(=O)[C@H]([C@@H](C)O)NC(=O)[C@H](CCCCN)NC(=O)[C@@H](Cc2c[nH]c3ccccc23)NC(=O)[C@H](Cc2ccccc2)NC(=O)[C@H](Cc2ccccc2)NC(=O)[C@@H](Cc2ccc(O)cc2)NC(=O)[C@H](CCCCN)NC(=O)[C@@H](N)CSSC[C@@H](C(=O)O)NC(=O)[C@H](CO)NC1=O [Ex. 5, L-Cysteinyl-L-lysyl-D-tyrosyl-L-phenylalanyl-L-phenylalanyl-D-tryptophyl-L- lysyl-L-threonyl-L-phenylalanyl-L-threonyl-L-seryl-L-cysteine cyclic (1→12) disulfide] (H-CK[dY]FF[dW]KTFTSC-OH; disulfide 1-12)
- GH (duration of growth hormone suppression) ([1]; 2 hours, control 84 ± 17, p<0.01): 27 ± 5 ng/mL
- GH (duration of growth hormone suppression) ([1]; 2 hours, second experiment, control 80 ± 12): 72 ± 21 ng/mL
- GH (duration of growth hormone suppression) ([1]; 4 hours, control 84 ± 22, p<0.05): 33 ± 4 ng/mL
- GH (duration of growth hormone suppression) ([1]; 5 hours, control (printed 2 hours) 141 ± 51): 113 ± 27 ng/mL

Structure (SMILES): C[C@H](N)C(=O)NCC(=O)N[C@H]1CSSC[C@@H](C(=O)O)NC(=O)[C@H](CO)NC(=O)[C@H]([C@@H](C)O)NC(=O)[C@H](Cc2ccccc2)NC(=O)[C@H]([C@@H](C)O)NC(=O)[C@H](CCCCN)NC(=O)[C@H](Cc2c[nH]c3ccccc23)NC(=O)[C@H](Cc2ccccc2)NC(=O)[C@H](Cc2ccccc2)NC(=O)[C@H](CC(N)=O)NC(=O)[C@H](CCCCN)NC1=O [SRIF, reference compound]
- INS ([2]; dose 200 μg/kg sc, control 43 ± 3): 31 ± 2 µU/mL
- GLUN ([3]; dose 200 μg/kg sc, control 46 ± 6, p<0.01): 21 ± 4 pg/mL

Structure (SMILES): C[C@@H](O)[C@@H]1NC(=O)[C@H](Cc2ccccc2)NC(=O)[C@H]([C@@H](C)O)NC(=O)[C@H](CCCCN)NC(=O)[C@@H](Cc2c[nH]c3ccccc23)NC(=O)[C@H](Cc2ccccc2)NC(=O)[C@H](Cc2ccccc2)NC(=O)[C@@H](Cc2c[nH]cn2)NC(=O)[C@H](CCCNC(=N)N)NC(=O)[C@@H](N)CSSC[C@@H](C(=O)O)NC(=O)[C@H](CO)NC1=O [Ex. 4, L-Cysteinyl-L-arginyl-D-histidyl-L-phenylalanyl-L-phenylalanyl-D-tryptophyl-L-lysyl-L-threonyl-L-phenylalanyl-L-threonyl-L-seryl-L-cysteine cyclic (1→12) disulfide tetra-acetate (salt)] (H-CR[dH]FF[dW]KTFTSC-OH; disulfide 1-12)
- GH ([4]; dose 500 μg/kg, control 119 ± 29): 6 ± 1 ng/mL
- INS ([2]; dose 500 μg/kg, control 280 ± 15): 127 ± 22 μU/ml
- GH (duration of activity) ([1]; 2 hours, control 82 ± 25, p<0.05): 24 ± 5 ng/mL
- GH (duration of activity) ([1]; 4 hours, control 76 ± 28, p<0.1 (not significant)): 20 ± 7 ng/mL
- GH (duration of activity) ([1]; 5 hours, control 171 ± 38, p<0.02): 54 ± 11 ng/mL
- GH (duration of activity) ([1]; 6 hours, control 73 ± 10): 54 ± 13 ng/mL
- GLUN ([3]; dose 500 μg/kg, control 44 ± 6): 29 ± 5 pg/mL

Structure (SMILES): C[C@@H](O)[C@@H]1NC(=O)[C@H](Cc2ccccc2)NC(=O)[C@H]([C@@H](C)O)NC(=O)[C@H](CCCCN)NC(=O)[C@@H](Cc2c[nH]c3ccccc23)NC(=O)[C@H](Cc2ccccc2)NC(=O)[C@H](Cc2ccccc2)NC(=O)[C@@H](CCCNC(=N)N)NC(=O)[C@H](CCCNC(=N)N)NC(=O)[C@@H](N)CSSC[C@@H](C(=O)O)NC(=O)[C@H](CO)NC1=O [Ex. 2, L-Cysteinyl-L-arginyl-D-arginyl-L-phenylalanyl-L-phenylalanyl-D-tryptophyl- L-lysyl-L-threonyl-L-phenylalanyl-L-threonyl-L-seryl-L-cysteine cyclic (1→12)-disulfide tetraacetate (salt)] (H-CR[dR]FF[dW]KTFTSC-OH; disulfide 1-12)
- GH ([4]; dose 1,000 μg/kg, control 141 ± 14): 4 ± 3 ng/mL
- INS ([2]; dose 1,000 μg/kg, control 227 ± 19): 89 ± 8 µU/mL
- GH (duration of activity) ([1]; 2 hours, control 303 ± 53, p<0.001): 54 ± 11 ng/mL
- GH (duration of activity) ([1]; 4 hours, control 73 ± 7): 83 ± 9 ng/mL
- GLUN ([3]; dose 1,000 μg/kg, control 61 ± 7): 44 ± 8 pg/mL

Structure (SMILES): C[C@@H](O)[C@@H]1NC(=O)[C@H](CCCCN)NC(=O)[C@@H](Cc2c[nH]c3ccccc23)NC(=O)[C@H](Cc2ccccc2)NC(=O)[C@H](Cc2ccccc2)NC(=O)[C@@H](Cc2ccc(O)cc2)NC(=O)[C@H](CCCNC(=N)N)NC(=O)[C@@H](N)CSSC[C@H](C(=O)O)NC(=O)[C@H](CO)NC(=O)[C@H]([C@@H](C)O)NC(=O)[C@H](Cc2ccccc2)NC1=O [L-Cysteinyl-L-arginyl-D-tyrosyl-L-phenylalanyl-L-phenylalanyl-D-tryptophyl- L-lysyl-L-threonyl-L-phenylalanyl-L-threonyl-L-seryl-D-cysteine cyclic (1→12) disuflide] (H-CR[dY]FF[dW]KTFTS[dC]-OH; disulfide 1-12)
- GH ([4]; dose 3,000 μg/kg sc, control 176 ± 33): 17 ± 3 ng/mL
- reduction of secretion of growth hormone, insulin and glucagon (in words) ([4]; summary of rat data): effective agent for reducing secretion of growth hormone, insulin, and glucagon
- INS ([2]; dose 100 μg/kg sc, control 43 ± 3): 7 ± 2 µU/mL
- INS ([2]; dose 3,000 μg/kg sc, control 340 ± 17): 48 ± 9 µU/mL
- Plasma GH ([1]; 500 μg/kg SC, 6 hours after injection, control 103 ± 17): 152 ± 27 ng/mL
- Plasma GH ([1]; 1,000 μg/kg SC, 2 hours after injection, control 542 ± 145, p<0.01): 30 ± 5 ng/mL
- Plasma GH ([1]; 1,000 μg/kg SC, 4 hours after injection, control 107 ± 25, p<0.01): 37 ± 6 ng/mL
- Plasma GH ([1]; 1,000 μg/kg SC, 6 hours after injection, control 103 ± 17): 114 ± 22 ng/mL
- duration of growth hormone suppression (in words) ([1]; summary of rat data): very prolonged activity in suppressing growth hormone blood levels
- GLUN ([3]; dose 100 μg/kg sc, control 46 ± 6, p>0.05): 31 ± 4 pg/mL
- GLUN ([3]; dose 3,000 μg/kg sc, control 48 ± 5, p<0.01): 23 ± 4 pg/mL

Structure (SMILES): C[C@@H](O)[C@@H]1NC(=O)[C@H](Cc2ccccc2)NC(=O)[C@H]([C@@H](C)O)NC(=O)[C@H](CCCCN)NC(=O)[C@@H](Cc2c[nH]c3ccccc23)NC(=O)[C@H](Cc2ccccc2)NC(=O)[C@H](Cc2ccccc2)NC(=O)[C@@H](CCCNC(=N)N)NC(=O)[C@H](CCCCN)NC(=O)[C@@H](N)CSSC[C@@H](C(=O)O)NC(=O)[C@H](CO)NC1=O [Ex. 6] (H-CK[dR]FF[dW]KTFTSC-OH; disulfide 1-12)
- GH [4, 5]: 34 ± 8 ng/mL
- INS [2, 6]: 5 ± 1 µU/mL
- GH (duration of activity) ([1]; 2 hours, control 148 ± 25, p<0.01): 53 ± 8 ng/mL
- GH (duration of activity) ([1]; 4 hours, control 73 ± 24, p<0.1): 21 ± 4 ng/mL
- GLUN [3, 7]: 32 ± 5 pg/mL

Structure (SMILES): C[C@@H](O)[C@@H]1NC(=O)[C@H](Cc2ccccc2)NC(=O)[C@H]([C@@H](C)O)NC(=O)[C@H](CCCCN)NC(=O)[C@@H](Cc2c[nH]c3ccccc23)NC(=O)[C@H](Cc2ccccc2)NC(=O)[C@H](Cc2ccccc2)NC(=O)[C@@H](CO)NC(=O)[C@H](CCCNC(=N)N)NC(=O)[C@@H](N)CSSC[C@@H](C(=O)O)NC(=O)[C@H](CO)NC1=O [Ex. 3, L-Cysteinyl-L-arginyl-D-seryl-L-phenylalanyl-L-phenylalanyl-D-tryptophyl-L- lysyl-L-threonyl-L-phenylalanyl-L-threonyl-L-seryl-L-cysteine cyclic (1→12)-disulfide triacetate (salt)] (H-CR[dS]FF[dW]KTFTSC-OH; disulfide 1-12)
- GH [4, 5]: 37 ± 9 ng/mL
- INS [2, 6]: 8 ± 1 μU/ml
- GH (duration of activity) ([1]; 2 hours, control 290 ± 64, p<0.02): 91 ± 29 ng/mL
- GH (duration of activity) ([1]; 4 hours, control 133 ± 38, p<0.1 (not significant)): 57 ± 12 ng/mL
- GLUN [3, 7]: 26 ± 5 pg/mL
